Measured values as given in PubChem BioAssay (NCI).
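Five concentrations, 48 hours, 96-well plates. GI50 = concentration required for 50% inhibition of growth. TGI is the concentration that stops growth completely.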

Key:
Assay in all cases: NCI tumour cell line growth inhibition, 48 h
[1] = system: HOP-18 NSCLC
[2] = system: SN12K1 renal
[3] = system: SNB-78 CNS
[4] = system: M19-MEL melanoma
[5] = system: P388/ADR leukemia
[6] = system: XF 498 CNS
[7] = system: DLD-1 colon
[8] = system: DMS 273 small cell lung
[9] = system: DMS 114 small cell lung
[10] = system: RXF-631 renal
[11] = system: LXFL 529 NSCLC

Compound	GI50 [1] [µM]	TGI [1] [µM]	TGI [2] [µM]	TGI [3] [µM]	TGI [4] [µM]	TGI [5] [µM]	TGI [6] [µM]	TGI [7] [µM]	TGI [8] [µM]	TGI [9] [µM]	TGI [10] [µM]	TGI [11] [µM]	GI50 [4] [µM]	GI50 [7] [µM]	GI50 [8] [µM]	GI50 [6] [µM]	GI50 [2] [µM]	GI50 [3] [µM]	GI50 [5] [µM]	GI50 [9] [µM]
Cc1cc(-c2ccc(N=Nc3ccc4c(S(=O)(=O)O)cc(S(=O)(=O)O)c(N)c4c3O)c(C)c2)ccc1N=Nc1ccc2c(S(=O)(=O)O)cc(S(=O)(=O)O)c(N)c2c1O	> 100	> 100	> 100	> 100	> 100	> 100	> 100	> 100	> 100	> 100	–	–	–	–	–	–	–	–	–	–
COc1ccc(/C(C=O)=C(\Cl)c2ccc(OC)c(OC)c2)cc1	–	> 100	–	> 100	> 100	–	50.2	> 100	> 100	> 100	> 100	> 100	–	–	–	–	–	–	–	–
CN(Cc1cnc2nc(N)nc(N)c2n1)c1ccc(C(=O)NC(CCC(=O)O)C(=O)O)c2ccccc12 (centres undefined)	0.0452	–	–	–	–	–	–	–	–	–	–	–	0.0725	0.00257	0.000946	–	–	–	–	–
COc1cccc(/C=N/[N-]C(N)=O)c1[O-].[Cu+2].[OH3+]	–	–	–	–	–	–	29.4	–	–	–	–	–	–	–	–	15.9	–	–	–	–
CC(C)C(NCc1c2ccccc2[n+](C)c2ccccc12)C(=O)O (centres undefined)	–	18.1	–	24.8	21.2	–	17.8	13.8	13.3	5.79	17.1	14	–	–	–	–	–	–	–	–
Cc1cc(NC(=O)NC(=O)c2ccccc2NC(=O)CN(C)C)ccc1Oc1ncc(Br)cn1	–	–	–	> 100	> 100	–	> 100	> 100	> 100	35.7	–	> 100	–	–	–	–	–	–	–	–
NC1CCC2(O)c3ccccc3C2C1 (centres undefined)	–	> 100	–	> 100	> 100	–	> 100	–	> 100	> 100	–	> 100	–	–	–	–	–	–	–	–
CN1C(c2ccccc2)CC(O)CC1c1ccccc1 (centres undefined)	–	–	–	> 100	> 100	–	–	> 100	> 100	> 100	–	> 100	–	–	–	–	–	–	–	–
COc1c(OC2OC(CO)C(O)C(O)C2O)cc2c(c1OC)-c1ccc(OC)c(=O)cc1C(NC(C)=O)CC2 (centres undefined)	–	> 100	–	> 100	> 100	–	> 100	> 100	> 100	> 100	> 100	> 100	–	–	–	–	–	–	–	–
O=C(O)C1CCC(=O)N1C(=O)COc1cc(Cl)c(Cl)cc1Cl (centres undefined)	–	–	–	> 100	> 100	–	> 100	–	> 100	> 100	> 100	> 100	–	–	–	–	–	–	–	–
[C-]#[O+].[Cl][Sn]([Cl])[Cl].[Cl][Sn]([Cl])[Cl].[Pt].c1cnc2c(c1)ccc1cccnc12	6.73	> 100	16.7	66	> 31.6	5.1	44.3	–	6	> 39.4	–	–	3.25	–	2.59	9.1	3.37	15.8	1.78	4.14
CC1CC(c2ccccc2)=Nc2ccccc2S1 (centres undefined)	–	–	–	> 100	> 100	–	> 100	> 100	> 100	> 100	> 100	> 100	–	–	–	–	–	–	–	–
